Test results as given in ChEMBL document CHEMBL1151393, “Biologically active pyrrolizidine alkaloids from the true forget-me-not, Myosotis scorpioides” (J Nat Prod, 1982).

Columns and labels:
Format in all cases: organism-based
Settings in all cases: in vivo
[1] = tested on: Mus musculus; assay: Toxicity in BS1 mouse at 63 mg/kg, ip; set-up: dose 63 mg/kg, route intraperitoneal
[2] = tested on: Mus musculus; assay: Toxicity in BS1 mouse assessed as death at 500 mg/kg, ip within 4 mins; set-up: dose 500 mg/kg, route intraperitoneal
[3] = tested on: Mus musculus; assay: Toxicity in BS1 mouse assessed as lethargy, ataxia, gasping and clonic convulsion at 500 mg/kg, ip within 4 mins; set-up: dose 500 mg/kg, route intraperitoneal
[4] = tested on: Mus musculus; assay: Toxicity in BS1 mouse at 125 mg/kg, ip; set-up: dose 125 mg/kg, route intraperitoneal
[5] = tested on: Mus musculus; assay: Toxicity in BS1 mouse assessed as ataxia at 250 mg/kg, ip; set-up: dose 250 mg/kg, route intraperitoneal
[6] = tested on: Mus musculus; assay: Toxicity in BS1 mouse assessed as lethargy at 250 mg/kg, ip; set-up: dose 250 mg/kg, route intraperitoneal
[7] = tested on: Mus musculus; assay: Toxicity in BS1 mouse assessed as occurrence of liver lesions at 250 mg/kg, ip; set-up: dose 250 mg/kg, route intraperitoneal

SMILES | Activity [1] | Activity [2] | Activity [3] | Activity [4] | Activity [5] | Activity [6] | Activity [7]
C/C=C(\C)C(=O)O[C@@H](C)[C@](O)(C(=O)OCC1=CCN2CC[C@@H](OC(C)=O)[C@@H]12)C(C)C | Non-toxic | Toxic | Toxic | Non-toxic | Toxic | Toxic | Non-toxic
C/C=C(\C)C(=O)O[C@@H](C)[C@](O)(C(=O)OCC1=CCN2CC[C@@H](O)[C@@H]12)C(C)C [SCORPIOIDINE] | Non-toxic | Toxic | Toxic | Non-toxic | Toxic | Toxic | Non-toxic
